Structures can show the parent of a compound that is named as a salt.
Legend:
Assay in all cases: Enzymatic Assay
Details in all cases: pH 7.5; 24 °C
Phosphodiesterase = molecular target: T1, Phosphodiesterase (Trypanosoma cruzi, UniProt Q53I59)
T1 sequence (Q53I59 whole entry): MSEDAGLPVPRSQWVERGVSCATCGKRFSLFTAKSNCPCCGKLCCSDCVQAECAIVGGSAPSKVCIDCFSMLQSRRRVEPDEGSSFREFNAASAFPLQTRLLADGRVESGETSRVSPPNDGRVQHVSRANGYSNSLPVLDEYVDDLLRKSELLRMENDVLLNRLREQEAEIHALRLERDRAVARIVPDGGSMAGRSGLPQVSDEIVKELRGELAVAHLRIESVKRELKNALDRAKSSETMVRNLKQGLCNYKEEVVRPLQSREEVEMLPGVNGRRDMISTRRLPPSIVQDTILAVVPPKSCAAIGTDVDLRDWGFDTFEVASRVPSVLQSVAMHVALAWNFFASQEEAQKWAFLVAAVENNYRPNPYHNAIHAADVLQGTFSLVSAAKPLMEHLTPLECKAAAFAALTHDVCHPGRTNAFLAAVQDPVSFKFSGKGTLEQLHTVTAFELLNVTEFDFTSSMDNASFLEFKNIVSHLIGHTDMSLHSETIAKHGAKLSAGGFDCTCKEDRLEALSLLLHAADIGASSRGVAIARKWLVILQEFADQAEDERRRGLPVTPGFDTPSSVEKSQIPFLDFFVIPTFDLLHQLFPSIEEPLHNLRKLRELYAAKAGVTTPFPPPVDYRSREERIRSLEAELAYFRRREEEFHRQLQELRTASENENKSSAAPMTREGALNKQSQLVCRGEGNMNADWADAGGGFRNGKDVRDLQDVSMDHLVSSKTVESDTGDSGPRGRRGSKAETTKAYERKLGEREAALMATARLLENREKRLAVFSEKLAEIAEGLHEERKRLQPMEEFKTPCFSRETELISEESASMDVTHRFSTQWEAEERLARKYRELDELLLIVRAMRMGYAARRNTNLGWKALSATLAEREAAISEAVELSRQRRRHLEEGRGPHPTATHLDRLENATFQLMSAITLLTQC
Method: (§1) Enzymatic activities were assayed using [3H] cAMP and [3H]cGMP as substrate.

[1] = molecular target: cGMP-dependent 3',5'-cyclic phosphodiesterase (Homo sapiens, UniProt O00408)
cGMP-dependent 3',5'-cyclic phosphodiesterase, sequence (O00408 whole entry): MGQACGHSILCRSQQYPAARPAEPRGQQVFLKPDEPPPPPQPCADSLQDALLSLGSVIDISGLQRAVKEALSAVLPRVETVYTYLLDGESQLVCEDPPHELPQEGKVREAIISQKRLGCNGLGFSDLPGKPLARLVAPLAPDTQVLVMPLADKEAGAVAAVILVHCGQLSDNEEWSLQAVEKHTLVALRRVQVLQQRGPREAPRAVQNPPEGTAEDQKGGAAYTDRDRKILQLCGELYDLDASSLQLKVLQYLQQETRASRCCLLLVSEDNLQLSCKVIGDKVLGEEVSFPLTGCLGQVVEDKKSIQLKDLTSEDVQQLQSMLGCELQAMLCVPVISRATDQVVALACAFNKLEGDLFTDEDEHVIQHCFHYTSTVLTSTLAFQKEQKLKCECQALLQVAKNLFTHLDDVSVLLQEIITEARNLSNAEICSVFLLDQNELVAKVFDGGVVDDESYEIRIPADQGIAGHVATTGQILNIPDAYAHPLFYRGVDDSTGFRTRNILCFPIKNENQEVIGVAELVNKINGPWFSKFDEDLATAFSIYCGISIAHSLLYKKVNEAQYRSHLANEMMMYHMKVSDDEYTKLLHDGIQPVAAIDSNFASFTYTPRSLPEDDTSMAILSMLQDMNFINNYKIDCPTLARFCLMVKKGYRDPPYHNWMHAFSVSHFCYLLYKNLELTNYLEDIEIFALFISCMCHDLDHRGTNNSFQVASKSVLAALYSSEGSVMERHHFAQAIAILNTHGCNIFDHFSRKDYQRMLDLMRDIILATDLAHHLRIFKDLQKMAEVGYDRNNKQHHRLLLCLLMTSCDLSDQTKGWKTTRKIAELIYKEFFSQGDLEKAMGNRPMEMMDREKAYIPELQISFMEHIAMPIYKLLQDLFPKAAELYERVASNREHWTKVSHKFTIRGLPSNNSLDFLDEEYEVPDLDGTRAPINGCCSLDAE
Method: as §1

[2] = molecular target: cAMP-specific 3',5'-cyclic phosphodiesterase 4D (Homo sapiens, UniProt Q08499)
cAMP-specific 3',5'-cyclic phosphodiesterase 4D, sequence (Q08499 whole entry): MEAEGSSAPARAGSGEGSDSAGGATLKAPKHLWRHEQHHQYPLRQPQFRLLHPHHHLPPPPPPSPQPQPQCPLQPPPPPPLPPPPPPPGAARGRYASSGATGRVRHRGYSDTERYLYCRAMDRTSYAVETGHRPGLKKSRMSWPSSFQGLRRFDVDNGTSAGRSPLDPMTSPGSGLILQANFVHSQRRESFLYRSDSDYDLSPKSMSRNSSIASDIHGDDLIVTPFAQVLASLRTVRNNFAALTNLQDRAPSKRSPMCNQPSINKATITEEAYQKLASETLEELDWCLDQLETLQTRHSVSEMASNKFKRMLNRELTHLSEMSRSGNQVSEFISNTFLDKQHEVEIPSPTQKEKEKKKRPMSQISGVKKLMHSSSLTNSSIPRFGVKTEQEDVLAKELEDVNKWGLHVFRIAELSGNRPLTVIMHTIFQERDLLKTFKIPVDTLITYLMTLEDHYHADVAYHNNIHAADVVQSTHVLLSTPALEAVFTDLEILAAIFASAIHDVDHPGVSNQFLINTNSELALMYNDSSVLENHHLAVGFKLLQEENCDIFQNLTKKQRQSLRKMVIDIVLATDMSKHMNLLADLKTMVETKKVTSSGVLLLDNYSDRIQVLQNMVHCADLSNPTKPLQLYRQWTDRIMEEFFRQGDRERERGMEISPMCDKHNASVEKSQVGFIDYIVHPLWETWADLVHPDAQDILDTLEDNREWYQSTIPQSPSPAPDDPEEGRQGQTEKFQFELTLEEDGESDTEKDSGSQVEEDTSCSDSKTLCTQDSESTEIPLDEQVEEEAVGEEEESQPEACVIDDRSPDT
Method: as §1

[3] = molecular target: cGMP-inhibited 3',5'-cyclic phosphodiesterase 3A (Homo sapiens, UniProt Q14432)
cGMP-inhibited 3',5'-cyclic phosphodiesterase 3A, sequence (Q14432 whole entry): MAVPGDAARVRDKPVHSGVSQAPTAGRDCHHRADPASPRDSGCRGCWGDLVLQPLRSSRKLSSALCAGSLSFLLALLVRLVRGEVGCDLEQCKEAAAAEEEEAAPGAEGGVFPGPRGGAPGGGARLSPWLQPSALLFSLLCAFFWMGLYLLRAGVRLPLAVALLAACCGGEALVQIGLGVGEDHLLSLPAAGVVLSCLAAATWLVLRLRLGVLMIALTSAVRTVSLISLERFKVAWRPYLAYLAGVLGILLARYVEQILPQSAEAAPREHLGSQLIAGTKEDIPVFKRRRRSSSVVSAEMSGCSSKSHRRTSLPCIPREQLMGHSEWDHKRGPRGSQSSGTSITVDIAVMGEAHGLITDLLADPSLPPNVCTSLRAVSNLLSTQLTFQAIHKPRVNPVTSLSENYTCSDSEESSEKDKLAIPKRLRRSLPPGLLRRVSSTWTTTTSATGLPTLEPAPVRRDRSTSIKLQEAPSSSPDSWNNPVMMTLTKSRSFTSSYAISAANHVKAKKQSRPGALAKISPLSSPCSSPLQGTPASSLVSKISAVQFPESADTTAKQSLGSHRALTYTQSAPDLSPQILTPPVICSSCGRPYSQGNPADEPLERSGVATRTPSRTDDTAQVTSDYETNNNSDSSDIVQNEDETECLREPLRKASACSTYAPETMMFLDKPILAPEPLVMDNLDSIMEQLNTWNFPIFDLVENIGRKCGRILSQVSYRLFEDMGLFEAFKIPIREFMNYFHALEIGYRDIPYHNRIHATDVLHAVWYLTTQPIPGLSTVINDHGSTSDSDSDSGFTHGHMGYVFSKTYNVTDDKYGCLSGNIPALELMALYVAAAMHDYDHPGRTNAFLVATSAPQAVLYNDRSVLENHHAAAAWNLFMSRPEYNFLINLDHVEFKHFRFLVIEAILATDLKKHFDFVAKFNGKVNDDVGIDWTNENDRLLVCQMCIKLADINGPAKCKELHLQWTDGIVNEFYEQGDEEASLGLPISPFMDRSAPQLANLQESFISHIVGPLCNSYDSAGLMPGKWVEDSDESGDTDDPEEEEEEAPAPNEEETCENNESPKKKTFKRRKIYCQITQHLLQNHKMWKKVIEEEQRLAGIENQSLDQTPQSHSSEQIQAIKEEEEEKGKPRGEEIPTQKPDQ
Method: as §1

[4] = molecular target: High affinity cAMP-specific and IBMX-insensitive 3',5'-cyclic phosphodiesterase 8A (Homo sapiens, UniProt O60658)
High affinity cAMP-specific and IBMX-insensitive 3',5'-cyclic phosphodiesterase 8A, sequence (O60658 whole entry): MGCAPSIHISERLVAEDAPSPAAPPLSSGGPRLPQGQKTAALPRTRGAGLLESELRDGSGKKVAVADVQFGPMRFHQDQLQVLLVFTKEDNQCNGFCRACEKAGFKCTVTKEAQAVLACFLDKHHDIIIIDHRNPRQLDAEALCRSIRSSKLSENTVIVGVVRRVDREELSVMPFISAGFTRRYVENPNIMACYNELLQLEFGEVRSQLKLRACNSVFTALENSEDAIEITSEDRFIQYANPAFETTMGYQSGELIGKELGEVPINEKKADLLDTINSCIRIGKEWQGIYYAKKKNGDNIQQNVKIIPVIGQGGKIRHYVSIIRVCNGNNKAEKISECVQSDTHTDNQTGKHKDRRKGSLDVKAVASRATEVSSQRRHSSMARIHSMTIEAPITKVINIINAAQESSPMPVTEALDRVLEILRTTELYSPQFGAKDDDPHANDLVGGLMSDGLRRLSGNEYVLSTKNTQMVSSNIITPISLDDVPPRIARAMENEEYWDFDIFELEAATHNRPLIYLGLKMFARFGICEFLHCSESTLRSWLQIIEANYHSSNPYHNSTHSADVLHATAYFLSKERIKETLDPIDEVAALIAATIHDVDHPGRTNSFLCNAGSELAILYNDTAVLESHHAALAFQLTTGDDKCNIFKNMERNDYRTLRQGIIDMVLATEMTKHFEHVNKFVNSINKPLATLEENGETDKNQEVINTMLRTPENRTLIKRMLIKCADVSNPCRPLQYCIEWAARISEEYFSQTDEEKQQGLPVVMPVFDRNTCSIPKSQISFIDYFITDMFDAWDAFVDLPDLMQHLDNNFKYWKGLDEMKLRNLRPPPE
Method: as §1

[5] = molecular target: cGMP-specific 3',5'-cyclic phosphodiesterase (Homo sapiens, UniProt O76074)
Method: as §1

Structure (SMILES) | IC50 (Phosphodiesterase) [nM] | further results
COc1ccc(Cc2nccc3cc(OC)c(OC)cc23)cc1OC | 25000 | 
COc1ccc([C@@H]2CNC(=O)C2)cc1OC1CCCC1 (racemic) [Adeo] | > 100000 | 
CCCCCC[C@H]([C@H](C)O)n1cnc2c(N)ncnc21 (relative stereo) [3-(6-amino-9H-purin-9-yl)nonan-2-ol] | > 100000 | IC50 [1]: 800 nM
CC(=O)CCCCn1c(=O)c2c(ncn2C)n(C)c1=O [1-(5-Oxohexyl)theobromine (pentoxifylline)] | > 100000 | 
COc1cc(-c2ccc(=O)[nH]n2)ccc1OC(F)F [6-[4-(difluoromethoxy)-3-methoxyphenyl]-2,3-dihydropyridazin-3-one] | > 100000 | IC50 [3]: 500 nM
Cc1[nH]c(=O)c(C#N)cc1-c1ccncc1 [Milrinone] | > 100000 | 
CN(C(=O)CCCOc1ccc2[nH]c(=O)ccc2c1)C1CCCCC1 [N-Cyclohexyl-N-methyl-4-(2-oxo-1,2-dihydro-quinolin-6-yloxy)-butyramide] | > 100000 | 
CCCOc1cc(CC2CNC(=O)N2)ccc1OC (stereo not given) [Ro20-1724] | > 100000 | 

More lines, main results first:

IC50 (Phosphodiesterase) [nM] | Structure (SMILES) | further results
700 | CCOC(=O)c1cnc2c(cnn2CC)c1N=NC(C)C [1-Ethyl-4-(N'-isopropylidene-hydrazino)-1H-pyrazolo[3,4-b]pyridine-5-carboxylic acid ethyl ester] | IC50 [2]: 2000 nM
68000 | CC(C)Cn1c(=O)n(C)c(=O)c2[nH]cnc21 [1-methyl-3-(2-methylpropyl)-2,3,6,7-tetrahydro-1H-purine-2,6-dione] | 
3900 | COc1cc2c(cc1OC)-c1c/c(=N\c3c(C)cc(C)cc3C)n(C)c(=O)n1CC2 [CAS_5537] | IC50 [3]: 0.3 nM
6900 | OCCN(CCO)c1nc(N2CCCCC2)c2nc(N(CCO)CCO)nc(N3CCCCC3)c2n1 [Dipyridamine] | IC50 [4]: 500 nM
> 1000 | CCCc1nn(C)c2c(=O)[nH]c(-c3cc(S(=O)(=O)N4CCN(C)CC4)ccc3OCC)nc12 [SILDENAFIL CITRATE] | 
230 | CCCc1nn(C)c2c(=O)[nH]c(-c3cc(S(=O)(=O)NC(=O)OC(C)C)ccc3OCC)nc12 [Wyq16#] | IC50 [5]: 3 nM

From BindingDB's records for doi:10.1074/jbc.M111.326777 (University of North Carolina, 2012)
